The target of experiment [1] is BRD4-BD12 (1-477) (Homo sapiens (Human), UniProt O60885). The experiment in a line: Alphascreen binding assay BRD4-BD12. To be noted: BRD4(1 2) H4; read-out: Biochemical activity (IC50 μM) BRD4(1 2) H4. The method, boiled down:
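First, compound was preincubated 1 h at room temperature with the His-tagged BRD4 protein (BD1 44-164 or tandem BD12 1-477) and acetylated H4 peptide. Next, donor and acceptor beads were added at 7.5 μg/ml final. After 30 min, AlphaScreen emission was recorded.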
On the technique in general: In Alpha technology, singlet oxygen from a donor bead excites a nearby acceptor bead.

Experiment [2] relates to MV-4-11 cells. The experiment in a line: Oncology cell growth assay MV-4-11 (CellTiter Glo). To be noted: Homo sapiens, MV4-11, 72 h; MV-4-11, 3d growth; read-out: Cell activity (IC50 μM) MV-4-11 3d-Growth. It counts as cell-based. The method in brief:
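MV-4-11 AML cells (MLL-AF4), 3000 per well, exposed to 8-point 1:3 compound titration from 10 μM top concentration (0.2% DMSO) for 72 h. Viability by CellTiter Glo luminescence, normalized to DMSO controls; pIC50 from four-parameter curve fit.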
A general note: ATP-based viability assays read luminescence as a measure of living cells.

Experiment [3] deals with bromodomain. The experiment in a line: at least one of the bromodomain cell assays of Example 57. The following applies: at least one of the bromodomain cell assays described in Example 57; read-out: IC50 in at least one of the bromodomain cell assays. In kind it is cell-based.

Experimental findings from patent US10519177B2, “Heterocyclic compounds and uses thereof” (Plexxikon Inc., priority 2013, dated 2019) are described below.

SMILES strings stand for the structures. pIC50: −log10 of the molar value. A value given as a limit tells only on which side of the number the result lay.

The term IC50 denotes the point on the concentration scale where inhibition reaches its midpoint. As usually defined, the pIC50 is the negative decadic logarithm of the IC50, by convention in mol/L. For `CCOC(=O)c1ccc(-c2cn(CC3CCC(F)(F)CC3)c3cc(-c4c(C)noc4C)cnc23)cc1` [P-0537, ethyl 4-[1-[(4,4-difluorocyclohexyl)methyl]-6-(3,5-dimethylisoxazol-4-yl)pyrrolo[3,2-b]pyridin-3-yl]benzoate], the half-inhibitory concentration (IC50) in experiment [1] and in experiment [2] was below 1 µM throughout. In experiment [3], the pIC50 was above 5.00.
In the case of `[2H]C([2H])(C1CCC(F)(F)CC1)n1cc(-c2ccc(C(=O)OC)cc2)c2ncc(-c3c(C)noc3C)cc21` [P-0538, methyl 4-[1-[dideuterio-(4,4-difluorocyclohexyl)methyl]-6-(3,5-dimethylisoxazol-4-yl)pyrrolo[3,2-b]pyridin-3-yl]benzoate], the IC50 in experiment [1] and in experiment [2] was below 1 µM in each case. The negative-log IC50 (pIC50) in experiment [3] is above 5.00.
With `COC(=O)c1ccc(-c2cn(Cc3cccnn3)c3cc(-c4c(C)noc4C)cnc23)cc1` [P-0539, methyl 4-[6-(3,5-dimethylisoxazol-4-yl)-1-(pyridazin-3-ylmethyl)pyrrolo[3,2-b]pyridin-3-yl]benzoate], the IC50 in experiment [1] and in experiment [2] was below 1 µM each time. Besides, the negative-log IC50 (pIC50) in experiment [3] is above 5.00.
With `Cc1noc(C)c1-c1cnc2c(-c3ccc(C(=O)O)cc3)cn(Cc3cccnn3)c2c1` [P-0540, 4-[6-(3,5-dimethylisoxazol-4-yl)-1-(pyridazin-3-ylmethyl)pyrrolo[3,2-b]pyridin-3-yl]benzoic acid], the IC50 in experiment [1] and in experiment [2] was below 1 µM throughout. The pIC50 in experiment [3] is above 5.00.
For the molecule `Cc1cc(-c2cnc3c(-c4cnn(CC(F)(F)F)c4)cn(CC4CCC(F)(F)CC4)c3c2)cn(C)c1=O` [P-0541, 5-[1-[(4,4-difluorocyclohexyl)methyl]-3-[1-(2,2,2-trifluoroethyl)pyrazol-4-yl]pyrrolo[3,2-b]pyridin-6-yl]-1,3-dimethyl-pyridin-2-one], the IC50 in experiment [1] and in experiment [2] was below 1 µM each time. For the same molecule, the pIC50 in experiment [3] is above 5.00.
Take `CCOC(=O)c1ccc(-c2cn([C@@H](C)c3ccccn3)c3cc(-c4c(C)noc4C)cnc23)cc1` [P-0542, ethyl 4-[6-(3,5-dimethylisoxazol-4-yl)-1-[(1S)-1-(2-pyridyl)ethyl]pyrrolo[3,2-b]pyridin-3-yl]benzoate]: the IC50 in experiment [1] and in experiment [2] was below 1 µM each time. In experiment [3], the pIC50 was above 5.00.
As to `Cc1noc(C)c1-c1cnc2c(-c3ccc(C(=O)NC4CC4)nc3)cn([C@@H](C)c3ccccn3)c2c1` [P-0543, N-cyclopropyl-5-[6-(3,5-dimethylisoxazol-4-yl)-1-[(1S)-1-(2-pyridyl)ethyl]pyrrolo[3,2-b]pyridin-3-yl]pyridine-2-carboxamide], the IC50 in experiment [1] and in experiment [2] was below 1 µM each time. Also, the pIC50 in experiment [3] is above 5.00.
On to `COC(=O)c1ccc(-n2cc(CC3CCC(F)(F)CC3)c3cc(-c4c(C)noc4C)cnc32)cc1` [P-0544, methyl 4-[3-[(4,4-difluorocyclohexyl)methyl]-5-(3,5-dimethylisoxazol-4-yl)pyrrolo[2,3-b]pyridin-1-yl]benzoate], for which the values for the half-maximal inhibitory concentration (IC50) in experiment [1] and in experiment [2] were below 1 µM and 1 to 10 µM, respectively. In addition, in experiment [3], the negative logarithm of the IC50 (pIC50) was above 5.00.
The matching figures for `Cc1noc(C)c1-c1cnc2[nH]cc(C(O)(c3ccccn3)c3ccccn3)c2c1` [P-0545, [5-(3,5-dimethylisoxazol-4-yl)-1H-pyrrolo[2,3-b]pyridin-3-yl]-bis(2-pyridyl)methanol]: below 1 µM, below 1 µM and above 5.00.
The matching figures for `COC(=O)c1ccc(-c2cn(C(C)(C)c3ccccn3)c3cc(-c4c(C)noc4C)cnc23)cc1` [P-0547, methyl 4-[6-(3,5-dimethylisoxazol-4-yl)-1-[1-methyl-1-(2-pyridyl)ethyl]pyrrolo[3,2-b]pyridin-3-yl]benzoate]: below 1 µM, below 1 µM and above 5.00.
For `Cc1noc(C)c1-c1cnc2c(-c3ccc(C(=O)O)cc3)cn(C(C)(C)c3ccccn3)c2c1` [P-0548, 4-[6-(3,5-dimethylisoxazol-4-yl)-1-[1-methyl-1-(2-pyridyl)ethyl]pyrrolo[3,2-b]pyridin-3-yl]benzoic acid], in that order: below 1 µM, below 1 µM and above 5.00.
Turning to `Cc1noc(C)c1-c1cnc2c(I)cn(CC3CCCC3)c2c1` [P-0549], the half-maximal inhibitory concentration (IC50) in experiment [1] and in experiment [2] was below 1 µM each time. Also, the pIC50 in experiment [3] was above 5.00.
Turning to `COC(=O)c1ccc(-c2cn(CC3CCCC3)c3cc(-c4c(C)noc4C)cnc23)cc1` [P-0550, methyl 4-[1-(cyclopentylmethyl)-6-(3,5-dimethylisoxazol-4-yl)pyrrolo[3,2-b]pyridin-3-yl]benzoate], the IC50 in experiment [1] is below 1 µM; in experiment [2] it was 1 to 10 µM. The pIC50 in experiment [3] is above 5.00.
As to `Cc1noc(C)c1-c1cnc2c(-c3cnn(CC(F)(F)F)c3)cn(CC3CCCC3)c2c1` [P-0551, 4-[1-(cyclopentylmethyl)-3-[1-(2,2,2-trifluoroethyl)pyrazol-4-yl]pyrrolo[3,2-b]pyridin-6-yl]-3,5-dimethyl-isoxazole], the IC50 in experiment [1] and in experiment [2] was below 1 µM each time. Besides, the pIC50 in experiment [3] is above 5.00.
As for `Cc1noc(C)c1-c1cnc2c(-c3ccc(C(=O)O)cc3)cn(CC3CCCC3)c2c1` [P-0552, 4-[1-(cyclopentylmethyl)-6-(3,5-dimethylisoxazol-4-yl)pyrrolo[3,2-b]pyridin-3-yl]benzoic acid], the half-maximal inhibitory concentration (IC50) in experiment [1] and in experiment [2] was below 1 µM throughout. The pIC50 in experiment [3] is above 5.00.
On to `Cc1noc(C)c1-c1cnc2c(-c3cnn(CC(F)(F)F)c3)cn(CC3CCCCC3)c2c1` [P-0553, 4-[1-(cyclohexylmethyl)-3-[1-(2,2,2-trifluoroethyl)pyrazol-4-yl]pyrrolo[3,2-b]pyridin-6-yl]-3,5-dimethyl-isoxazole], for which the IC50 in experiment [1] and in experiment [2] was below 1 µM in each case. For the same molecule, in experiment [3], the pIC50 was above 5.00.
In the case of `Cc1noc(C)c1-c1cnc2c(-c3ccc(C(=O)O)cc3)cn(CC3CCCCC3)c2c1` [P-0554, 4-[1-(cyclohexylmethyl)-6-(3,5-dimethylisoxazol-4-yl)pyrrolo[3,2-b]pyridin-3-yl]benzoic acid], the IC50 in experiment [1] and in experiment [2] was below 1 µM each time. For the same molecule, the pIC50 in experiment [3] was above 5.00.
Turning to `CNS(=O)(=O)c1ccc(-c2cn([C@@H](C)c3ccccn3)c3cc(-c4c(C)noc4C)cnc23)cc1` [P-0555, 4-[6-(3,5-dimethylisoxazol-4-yl)-1-[(1S)-1-(2-pyridyl)ethyl]pyrrolo[3,2-b]pyridin-3-yl]-N-methyl-benzenesulfonamide], the IC50 in experiment [1] and in experiment [2] was below 1 µM each time. Besides, in experiment [3], the negative-log IC50 (pIC50) was above 5.00.
For the molecule `CCNS(=O)(=O)c1ccc(-c2cn([C@@H](C)c3ccccn3)c3cc(-c4c(C)noc4C)cnc23)cc1` [P-0556, 4-[6-(3,5-dimethylisoxazol-4-yl)-1-[(1S)-1-(2-pyridyl)ethyl]pyrrolo[3,2-b]pyridin-3-yl]-N-ethyl-benzenesulfonamide], the IC50 in experiment [1] and in experiment [2] was below 1 µM in each case. Also, the pIC50 in experiment [3] was above 5.00.
For `Cc1noc(C)c1-c1cnc2c(-c3ccc(S(=O)(=O)NC4CC4)cc3)cn([C@@H](C)c3ccccn3)c2c1` [P-0557, N-cyclopropyl-4-[6-(3,5-dimethylisoxazol-4-yl)-1-[(1S)-1-(2-pyridyl)ethyl]pyrrolo[3,2-b]pyridin-3-yl]benzenesulfonamide], the IC50 in experiment [1] and in experiment [2] was below 1 µM each time. Also, the pIC50 in experiment [3] was above 5.00.
`Cc1noc(C)c1-c1cnc2c(-c3ccc(CC(=O)O)cc3)cn([C@@H](C)c3ccccn3)c2c1` [P-0558, 2-[4-[6-(3,5-dimethylisoxazol-4-yl)-1-[(1S)-1-(2-pyridyl)ethyl]pyrrolo[3,2-b]pyridin-3-yl]phenyl]acetic acid]: the IC50 in experiment [1] and in experiment [2] was below 1 µM each time. Moreover, the pIC50 in experiment [3] is above 5.00.
As to `COC(=O)c1ccc(-c2cn([C@@H](C)c3ccccc3)c3cc(-c4c(C)noc4C)cnc23)cc1` [P-0559, methyl 4-[6-(3,5-dimethylisoxazol-4-yl)-1-[(1S)-1-phenylethyl]pyrrolo[3,2-b]pyridin-3-yl]benzoate], the IC50 in experiment [1] and in experiment [2] was below 1 µM each time. Besides, in experiment [3], the pIC50 is above 5.00.
Regarding `Cc1noc(C)c1-c1cnc2c(-c3ccc(C(=O)O)cc3)cn([C@@H](C)c3ccccc3)c2c1` [P-0560, 4-[6-(3,5-dimethylisoxazol-4-yl)-1-[(1S)-1-phenylethyl]pyrrolo[3,2-b]pyridin-3-yl]benzoic acid], the IC50 in experiment [1] and in experiment [2] was below 1 µM each time. For the same molecule, the negative logarithm of the IC50 (pIC50) in experiment [3] is above 5.00.
Consider `CNC(=O)Nc1ccc(-c2cn(CC3CCC(F)(F)CC3)c3cc(-c4c(C)noc4C)cnc23)cc1` [P-0561, 1-[4-[1-[(4,4-difluorocyclohexyl)methyl]-6-(3,5-dimethylisoxazol-4-yl)pyrrolo[3,2-b]pyridin-3-yl]phenyl]-3-methyl-urea], for which the IC50 in experiment [1] and in experiment [2] was below 1 µM throughout. Also, in experiment [3], the pIC50 was above 5.00.
For `Cc1noc(C)c1-c1cnc2c(-c3ccc(NC(=O)NC4CC4)cc3)cn(CC3CCC(F)(F)CC3)c2c1` [P-0562, 1-cyclopropyl-3-[4-[1-[(4,4-difluorocyclohexyl)methyl]-6-(3,5-dimethylisoxazol-4-yl)pyrrolo[3,2-b]pyridin-3-yl]phenyl]urea], the IC50 in experiment [1] and in experiment [2] was below 1 µM each time. Further, the pIC50 in experiment [3] was above 5.00.
